Laboratory results from US20240124417A1, “COMPOUNDS USEFUL AS IMMUNOMODULATORS” (Bristol-Myers Squibb Company, priority 2019, published 2024).

Target: T1, PD-1/PD-L1 (Homo sapiens, UniProt Q9NZQ7)
T1 construct: TVMV protease site linker (C); made in house; host or cells: HEK293T cells
Assay: PD-1/PD-L1 Homogenous Time-Resolved Fluorescence (HTRF) binding assay
Conditions: PD-L1-His 10 nM, PD-1-Ig 20 nM
Method in brief: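 Inhibitors pre-incubated 15 min with PD-L1-His extracellular domain (10 nM final) in dPBS with 0.1% BSA and 0.05% Tween-20, then PD-1-Ig (20 nM final) added for a further 15 min. Read-out by HTRF with europium cryptate anti-Ig (1 nM) and APC anti-His (20 nM). Related pairs: PD-1-Ig/PD-L2-His (20/5 nM), CD80-His/PD-L1-Ig (100/10 nM).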

T1 sequence (Q9NZQ7 18-239): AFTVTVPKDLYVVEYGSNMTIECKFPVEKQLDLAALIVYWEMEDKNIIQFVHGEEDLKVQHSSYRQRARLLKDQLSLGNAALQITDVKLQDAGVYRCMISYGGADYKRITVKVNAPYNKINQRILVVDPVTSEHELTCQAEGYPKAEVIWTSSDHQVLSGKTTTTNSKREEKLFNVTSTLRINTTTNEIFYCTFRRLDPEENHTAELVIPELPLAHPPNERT

Row | SMILES | IC50
1 | Cc1c(COc2cc(OCc3ncn(C(c4ccccc4)(c4ccccc4)c4ccccc4)c3C)c(CNCc3ccnc(C#N)n3)cc2Cl)cccc1-c1cccc(OCCCN2CC[C@@H](O)C2)c1C [Example 2043, (R)-4-(((5-chloro-4-((3′-(3-(3-hydroxypyrrolidin-1-yl)propoxy)-2,2′-dimethyl-[1,1′-biphenyl]-3-yl)methoxy)-2-((5-methyl-1-trityl-1H-imidazol-4-yl)methoxy)benzyl)amino)methyl)pyrimidine-2-carbonitrile] | > 10000 nM
2 | Cc1c(COc2cc(OCc3cncc(C#N)c3)c(CN(C)Cc3ccn(C)n3)cc2Cl)cccc1-c1cccc(OCCCN2CC[C@@H](O)C2)c1C [Example 2026, (R)-5-((4-chloro-5-((3′-(3-(3-hydroxypyrrolidin-1-yl)propoxy)-2,2′-dimethyl-[1,1′-biphenyl]-3-yl)methoxy)-2-((methyl((1-methyl-1H-pyrazol-3-yl)methyl)amino)methyl)phenoxy)methyl)nicotinonitrile] | 1.9 nM
3 | COc1cc(OCc2cccc(-c3cccc(OCC4CCCN(C)C4)c3Cl)c2C)c(Cl)cc1CNCc1cn[nH]c1 (stereo not shown) [Example 2056, N-((1H-pyrazol-4-yl)methyl)-1-(5-chloro-4-((2′-chloro-2-methyl-3′-((1-methylpiperidin-3-yl)methoxy)-[1,1′-biphenyl]-3-yl)methoxy)-2-methoxyphenyl)methanamine] | 3.5 nM
4 | Cc1c(COc2cc(OCc3cncc(C#N)c3)c(CNCc3cncs3)cc2Cl)cccc1-c1cccc(OCCCN2CC[C@@H](O)C2)c1C [Example 2531, (R)-5-((4-chloro-5-((3′-(3-(3-hydroxypyrrolidin-1-yl)propoxy)-2,2′-dimethyl-[1,1′-biphenyl]-3-yl)methoxy)-2-(((thiazol-5-ylmethyl)amino)methyl)phenoxy)methyl)nicotinonitrile] | 3.4 nM
5 | Cc1c(COc2cc(OCc3cncc(C#N)c3)c(CNCc3cccnn3)cc2Cl)cccc1-c1cccc(OCC2CCCN(CCC(F)(F)F)C2)c1Cl (stereo not shown) [Example 2064, 5-((4-chloro-5-((2′-chloro-2-methyl-3′-((1-(3,3,3-trifluoropropyl)piperidin-3-yl)methoxy)-[1,1′-biphenyl]-3-yl)methoxy)-2-(((pyridazin-3-ylmethyl)amino)methyl)phenoxy)methyl)nicotinonitrile] | 179 nM
6 | Cc1c(COc2cc(OCc3cncc(C#N)c3)c(CN(C)Cc3ccnc(C#N)n3)cc2Cl)cccc1-c1cccc(OCCCN2CC[C@@H](O)C2)c1C [Example 2045, (R)-4-(((5-chloro-2-((5-cyanopyridin-3-yl)methoxy)-4-((3′-(3-(3-hydroxypyrrolidin-1-yl)propoxy)-2,2′-dimethyl-[1,1′-biphenyl]-3-yl)methoxy)benzyl) (methyl)amino)methyl)pyrimidine-2-carbonitrile] | 16.4 nM
7 | Cc1c(COc2cc(OCc3cncc(C#N)c3)c(CN3CCCCC3c3nnn[nH]3)cc2Cl)cccc1-c1cccc(OCCCN2CC[C@@H](O)C2)c1C (stereo partly drawn) [Example 1012, 5-((2-((2-(1H-Tetrazol-5-yl)piperidin-1-yl)methyl)-4-chloro-5-((3′-(3-((R)-3-hydroxy-pyrrolidin-1-yl)propoxy)-2,2′-dimethyl-[1,1′-biphenyl]-3-yl)methoxy)phenoxy)methyl)-nicotinonitrile] | 0.7 nM
8 | Cc1c(COc2cc(OCc3cncc(C#N)c3)c(CN3CCc4[nH]cnc4C3)cc2Cl)cccc1-c1cccc(OCC2CCCN(C)C2)c1Cl (stereo not shown) [Example 2583, 5-((4-chloro-5-((2′-chloro-2-methyl-3′-((1-methylpiperidin-3-yl)methoxy)-[1,1′-biphenyl]-3-yl)methoxy)-2-((1,4,6,7-tetrahydro-5H-imidazo[4,5-c]pyridin-5-yl)methyl)phenoxy)methyl)nicotinonitrile] | 2.3 nM
9 | Cc1c(COc2cc(OCc3cncc(C#N)c3)c(CNCc3nc4ccccc4[nH]3)cc2Cl)cccc1-c1cccc(OCC2CCCN(C)C2)c1Cl (stereo not shown) [Example 2616, 5-((2-((((1H-benzo[d]imidazol-2-yl)methyl)amino)methyl)-4-chloro-5-((2′-chloro-2-methyl-3′-((1-methylpiperidin-3-yl)methoxy)-[1,1′-biphenyl]-3-yl)methoxy)phenoxy)methyl)nicotinonitrile] | 1.9 nM
10 | Cc1ncsc1CCNCc1cc(Cl)c(OCc2cccc(-c3cccc(OCC4CCCN(C)C4)c3Cl)c2C)cc1OCc1cncc(C#N)c1 (stereo not shown) [Example 2594, 5-((4-chloro-5-((2′-chloro-2-methyl-3′-((1-methylpiperidin-3-yl)methoxy)-[1,1′-biphenyl]-3-yl)methoxy)-2-(((2-(4-methylthiazol-5-yl)ethyl)amino)methyl)phenoxy)methyl)nicotinonitrile] | 0.7 nM
11 | Cc1c(COc2cc(OCc3cncc(C#N)c3)c(CN(C)CC(C)c3nnn[nH]3)cc2Cl)cccc1-c1cccc(OCCCN2CC[C@@H](O)C2)c1C (stereo partly drawn) [Example 1006, 5-((2-(((2-(1H-Tetrazol-5-yl)propyl)(methyl)amino)methyl)-4-chloro-5-((3′-(3-((R)-3-hydroxypyrrolidin-1-yl)propoxy)-2,2′-dimethyl-[1,1′-biphenyl]-3-yl)methoxy)phenoxy)methyl)nicotinonitrile] | 2.7 nM
12 | Cc1c(COc2cc(OCc3cncc(C#N)c3)c(CN3CCC(c4cc[nH]n4)C3)cc2Cl)cccc1-c1cccc(OCC2CCCN(C)C2)c1Cl (stereo not shown) [Example 2608, 5-((2-((3-(1H-pyrazol-3-yl)pyrrolidin-1-yl)methyl)-4-chloro-5-((2′-chloro-2-methyl-3′-((1-methylpiperidin-3-yl)methoxy)-[1,1′-biphenyl]-3-yl)methoxy)phenoxy)methyl)nicotinonitrile] | 2.3 nM
13 | Cc1c(COc2cc(OCc3cncc(C#N)c3)c(CN(C)Cc3nc4ccccc4[nH]3)cc2Cl)cccc1-c1cccc(OCCCN2CC[C@@H](O)C2)c1C [Example 2023, (R)-5-((2-((((1H-benzo[d]imidazol-2-yl)methyl)(methyl)amino)methyl)-4-chloro-5-((3′-(3-(3-hydroxypyrrolidin-1-yl)propoxy)-2,2′-dimethyl-[1,1′-biphenyl]-3-yl)methoxy)phenoxy)methyl)nicotinonitrile] | 8.8 nM
14 | Cc1c(COc2cc(OCc3cncc(C#N)c3)c(CNC3CCc4[nH]ncc4C3)cc2Cl)cccc1-c1cccc(OCC2CCCN(C)C2)c1Cl (stereo not shown) [Example 2601, 5-((4-chloro-5-((2′-chloro-2-methyl-3′-((1-methylpiperidin-3-yl)methoxy)-[1,1′-biphenyl]-3-yl)methoxy)-2-(((4,5,6,7-tetrahydro-1H-indazol-5-yl)amino)methyl)phenoxy)methyl)nicotinonitrile] | 0.6 nM
15 | Cc1c(COc2cc(OCc3cncnc3)c(CNCc3ncc[nH]3)cc2Cl)cccc1-c1cccc(OCCCN2CC[C@@H](O)C2)c1C [Example 2050, (R)-1-(3-((3′-((4-((((1H-imidazol-2-yl)methyl)amino)methyl)-2-chloro-5-(pyrimidin-5-ylmethoxy)phenoxy)methyl)-2,2′-dimethyl-[1,1′-biphenyl]-3-yl)oxy)propyl)pyrrolidin-3-ol] | 1.7 nM
16 | Cc1noc(C)c1CNCc1cc(Cl)c(OCc2cccc(-c3cccc(OCC4CCCN(C)C4)c3Cl)c2C)cc1OCc1cncc(C#N)c1 (stereo not shown) [Example 2597, 5-((4-chloro-5-((2′-chloro-2-methyl-3′-((1-methylpiperidin-3-yl)methoxy)-[1,1′-biphenyl]-3-yl)methoxy)-2-((((3,5-dimethylisoxazol-4-yl)methyl)amino)methyl)phenoxy)methyl)nicotinonitrile] | 2.9 nM
